Among the data in US7709471B2, “Compounds” (AstraZeneca AB, priority 2006, dated 2010) are IC50 values, retold here.

This assay concerns human colon tumour cell line HT29. The assay can be described thus: Cellular Assay (phosphohistone H3 Ser10 mitotic marker, HT29). It counts as cell-based. To be noted: HT-29, 24 h, HT29 cells, read-out: IC50 (cellular assay, phosphohistone H3).
Protocol: Chromosome condensation in mitosis is accompanied by phosphorylation of histone H3 on serine 10.
After 24 hours, cells were fixed in 3.7% (v/v) formaldehyde then permeabilised and blocked for 10 minutes in 100 μl 0.5% (v/v) Triton X-100, 1% (w/v) bovine serum albumin (BSA) in phosphate buffered saline (PBS). […] The raw assay data were analysed by non-linear regression analysis and used to determine an IC50 value for each compound.
What is called IC50 is the midpoint of a concentration-inhibition curve. Consider `CCN1CCC(NC(=O)c2ccc(Nc3ncc4c(n3)N(C(C)C)CC(C)(C)C(=O)N4C)c(OC)c2)CC1` [Example 300, N-(1-ethyl-4-piperidyl)-3-methoxy-4-[(4,4,6-trimethyl-5-oxo-2-propan-2-yl-2,6,9,11-tetrazabicyclo[5.4.0]undeca-7,9,11-trien-10-yl)amino]benzamide], for which the IC50 was less than 300 nM.
Regarding `COc1cc(C(=O)NCCN2CCCC2)ccc1Nc1ncc2c(n1)N(C(C)C)CC(C)(C)C(=O)N2C` [Example 301, 3-methoxy-N-(2-pyrrolidin-1-ylethyl)-4-[(4,4,6-trimethyl-5-oxo-2-propan-2-yl-2,6,9,11-tetrazabicyclo[5.4.0]undeca-7,9,11-trien-10-yl)amino]benzamide], the IC50 is less than 1000 nM.
On to `COc1cc(C(=O)NCCN(C)C)ccc1Nc1ncc2c(n1)N(C(C)C)CC(C)(C)C(=O)N2C` [Example 302, N-(2-dimethylaminoethyl)-3-methoxy-4-[(4,4,6-trimethyl-5-oxo-2-propan-2-yl-2,6,9,11-tetrazabicyclo[5.4.0]undeca-7,9,11-trien-10-yl)amino]benzamide], for which the IC50 is less than 1000 nM.
In the case of `COc1cc(C(=O)NCCCN(C)C)ccc1Nc1ncc2c(n1)N(C(C)C)CC(C)(C)C(=O)N2C` [Example 303, N-(3-dimethylaminopropyl)-3-methoxy-4-[(4,4,6-trimethyl-5-oxo-2-propan-2-yl-2,6,9,11-tetrazabicyclo[5.4.0]undeca-7,9,11-trien-10-yl)amino]benzamide], the IC50 was less than 300 nM.
`CCC1(CC)CN(C(C)C)c2nc(Nc3ccc(C(=O)NC4CCN(C)CC4)cc3OC)ncc2N(C)C1=O` [Example 304, 4-[(4,4-diethyl-6-methyl-5-oxo-2-propan-2-yl-2,6,9,11-tetrazabicyclo[5.4.0]undeca-7,9,11-trien-10-yl)amino]-3-methoxy-N-(1-methyl-4-piperidyl)benzamide]: the IC50 is less than 300 nM.
The value for `CCN1CCC(NC(=O)c2ccc(Nc3ncc4c(n3)N(C(C)C)CC(CC)(CC)C(=O)N4C)c(OC)c2)CC1` [Example 305, 4-[(4,4-diethyl-6-methyl-5-oxo-2-propan-2-yl-2,6,9,11-tetrazabicyclo[5.4.0]undeca-7,9,11-trien-10-yl)amino]-N-(1-ethyl-4-piperidyl)-3-methoxy-benzamide] was less than 300 nM.
With `CCN1CCC(NC(=O)c2cc(OC)c(Nc3ncc4c(n3)N(C(C)C)CC(CC)(CC)C(=O)N4C)cc2F)CC1` [Example 308, 4-[(4,4-diethyl-6-methyl-5-oxo-2-propan-2-yl-2,6,9,11-tetrazabicyclo[5.4.0]undeca-7,9,11-trien-10-yl)amino]-N-(1-ethyl-4-piperidyl)-2-fluoro-5-methoxy-benzamide], the IC50 was less than 300 nM.
Under `CCC1(CC)CN(C(C)C)c2nc(Nc3ccc(C(=O)NCC(C)(C)CN4CCCC4)cc3OC)ncc2N(C)C1=O` [Example 309, 4-[(4,4-diethyl-6-methyl-5-oxo-2-propan-2-yl-2,6,9,11-tetrazabicyclo[5.4.0]undeca-7,9,11-trien-10-yl)amino]-N-(2,2-dimethyl-3-pyrrolidin-1-yl-propyl)-3-methoxy-benzamide] stands less than 1000 nM.
Turning to `CC(C)N1CC2(CC2)C(=O)N(C)c2cnc(Nc3cc(F)c(C(=O)N[C@@H]4CCN(C)C4)cc3Cl)nc21` [Example 310, (R)-5-chloro-2-fluoro-4-(9′-isopropyl-5′-methyl-6′-oxo-5′,6′,8′,9′-tetrahydrospiro[cyclopropane-1,7′-pyrimido[5,4-b][1,4]diazepine]-2′-ylamino)-N-(1-methylpyrrolidin-3-yl)benzamide], the IC50 was less than 1000 nM.
Take `CCN1CCC(NC(=O)c2cc(Cl)c(Nc3ncc4c(n3)N(C(C)C)CC3(CC3)C(=O)N4C)cc2F)CC1` [Example 311, 5-chloro-N-(1-ethylpiperidin-4-yl)-2-fluoro-4-(9′-isopropyl-5′-methyl-6′-oxo-5′,6′,8′,9′-tetrahydrospiro[cyclopropane-1,7′-pyrimido[5,4-b][1,4]diazepine]-2′-ylamino)benzamide]: the IC50 is less than 1000 nM.
The value for `COc1cc(C(=O)NCCN2CCCC2)ccc1Nc1ncc2c(n1)N(C(C)C)CC1(CC1)C(=O)N2C` [Example 312, 4-(9′-isopropyl-5′-methyl-6′-oxo-5′,6′,8′,9′-tetrahydrospiro[cyclopropane-1,7′-pyrimido[5,4-b][1,4]diazepine]-2′-ylamino)-3-methoxy-N-(2-(pyrrolidin-1-yl)ethyl)benzamide] was less than 300 nM; that for `COc1cc(C(=O)NCC(C)(C)CN(C)C)ccc1Nc1ncc2c(n1)N(C(C)C)CC1(CC1)C(=O)N2C` [Example 313, N-(3-(dimethylamino)-2,2-dimethylpropyl)-4-(9′-isopropyl-5′-methyl-6′-oxo-5′,6′,8′,9′-tetrahydrospiro[cyclopropane-1,7′-pyrimido[5,4-b][1,4]diazepine]-2′-ylamino)-3-methoxybenzamide] was less than 300 nM.
For the molecule `CN1CCC(NC(=O)c2cc(Cl)c(Nc3ncc4c(n3)N(C3CCCC3)CCC(=O)N4C)c(Cl)c2F)CC1` [Example 330, 3,5-dichloro-4-[(2-cyclopentyl-6-methyl-5-oxo-2,6,9,11-tetrazabicyclo[5.4.0]undeca-7,9,11-trien-10-yl)amino]-2-fluoro-N-(1-methyl-4-piperidyl)benzamide], the IC50 is less than 1000 nM.
As for `COc1cc(C(=O)NCCN2CCCC2)c(F)cc1Nc1ncc2c(n1)N(C1CCCC1)CCC(=O)N2C` [Example 333, 4-[(2-cyclopentyl-6-methyl-5-oxo-2,6,9,11-tetrazabicyclo[5.4.0]undeca-7,9,11-trien-10-yl)amino]-2-fluoro-5-methoxy-N-(2-pyrrolidin-1-ylethyl)benzamide], the IC50 was less than 300 nM.
In the case of `CN1CC[C@@H](NC(=O)c2cc(F)c(Nc3ncc4c(n3)N(C3CCCC3)CCC(=O)N4C)cc2F)C1` [Example 334, 4-[(2-cyclopentyl-6-methyl-5-oxo-2,6,9,11-tetrazabicyclo[5.4.0]undeca-7,9,11-trien-10-yl)amino]-2,5-difluoro-N-[(3R)-1-methylpyrrolidin-3-yl]benzamide], the IC50 is less than 300 nM.
With `CN1C(=O)CCN(C2CCCC2)c2nc(Nc3cc(F)c(C(=O)NCCN4CCCC4)cc3F)ncc21` [Example 335, 4-[(2-cyclopentyl-6-methyl-5-oxo-2,6,9,11-tetrazabicyclo[5.4.0]undeca-7,9,11-trien-10-yl)amino]-2,5-difluoro-N-(2-pyrrolidin-1-ylethyl)benzamide], the IC50 was less than 300 nM.
The value for `COc1cc(C(=O)N[C@@H]2CCN(C)C2)c(Cl)cc1Nc1ncc2c(n1)N(C1CCCC1)CCC(=O)N2C` [Example 336, 2-chloro-4-[(2-cyclopentyl-6-methyl-5-oxo-2,6,9,11-tetrazabicyclo[5.4.0]undeca-7,9,11-trien-10-yl)amino]-5-methoxy-N-[(3R)-1-methylpyrrolidin-3-yl]benzamide] was less than 300 nM.
Regarding `CCN1CCC(NC(=O)c2cc(OC)c(Nc3ncc4c(n3)N(C3CCCC3)CCC(=O)N4C)cc2Cl)CC1` [Example 337, 2-chloro-4-[(2-cyclopentyl-6-methyl-5-oxo-2,6,9,11-tetrazabicyclo[5.4.0]undeca-7,9,11-trien-10-yl)amino]-N-(1-ethyl-4-piperidyl)-5-methoxy-benzamide], the IC50 was less than 300 nM.
The value for `COc1cc(C(=O)NC2CCC(N(C)C)CC2)c(Cl)cc1Nc1ncc2c(n1)N(C1CCCC1)CCC(=O)N2C` (centres unmarked) [Example 338, 2-chloro-4-[(2-cyclopentyl-6-methyl-5-oxo-2,6,9,11-tetrazabicyclo[5.4.0]undeca-7,9,11-trien-10-yl)amino]-N-(4-dimethylaminocyclohexyl)-5-methoxy-benzamide] was less than 300 nM.
Under `COc1cc(C(=O)NC2CCN(CC(C)C)CC2)ccc1Nc1ncc2c(n1)N(C1CCCC1)CCC(=O)N2C` [Example 340, 4-[(2-cyclopentyl-6-methyl-5-oxo-2,6,9,11-tetrazabicyclo[5.4.0]undeca-7,9,11-trien-10-yl)amino]-3-methoxy-N-[1-(2-methylpropyl)-4-piperidyl]benzamide] stands less than 300 nM; under `CN1CCC(NC(=O)c2ccc(Nc3ncc4c(n3)N(C3CCCC3)CCC(=O)N4C)c3c2OCO3)CC1` [Example 341, 7-[(2-cyclopentyl-6-methyl-5-oxo-2,6,9,11-tetrazabicyclo[5.4.0]undeca-7,9,11-trien-10-yl)amino]-N-(1-methyl-4-piperidyl)benzo[1,3]dioxole-4-carboxamide], less than 300 nM.
Consider `COc1cc(C(=O)NC2CCC(N3CCC3)CC2)ccc1Nc1ncc2c(n1)N(C1CCCC1)CCC(=O)N2C` (centres unmarked) [Example 346, N-[4-(azetidin-1-yl)cyclohexyl]-4-[(2-cyclopentyl-6-methyl-5-oxo-2,6,9,11-tetrazabicyclo[5.4.0]undeca-7,9,11-trien-10-yl)amino]-3-methoxy-benzamide], for which the concentration for half-maximal inhibition (IC50) was less than 300 nM.
As for `COc1cc(C(=O)NC2CCNCC2)ccc1Nc1ncc2c(n1)N(C1CCCC1)CC(C)(C)C(=O)N2C` [Example 349, 4-[(2-cyclopentyl-4,4,6-trimethyl-5-oxo-2,6,9,11-tetrazabicyclo[5.4.0]undeca-7,9,11-trien-10-yl)amino]-3-methoxy-N-(4-piperidyl)benzamide], the IC50 was less than 300 nM.
Turning to `CCN1CCC(NC(=O)c2ccc(Nc3ncc4c(n3)N(C3CCCC3)CC(C)(C)C(=O)N4C)c(OC)c2)CC1` [Example 350, 4-[(2-cyclopentyl-4,4,6-trimethyl-5-oxo-2,6,9,11-tetrazabicyclo[5.4.0]undeca-7,9,11-trien-10-yl)amino]-N-(1-ethyl-4-piperidyl)-3-methoxy-benzamide], the IC50 was less than 300 nM.
As for `COc1cc(C(=O)NCC(C)(C)CN(C)C)ccc1Nc1ncc2c(n1)N(C1CCCC1)CC(C)(C)C(=O)N2C` [Example 351, 4-[(2-cyclopentyl-4,4,6-trimethyl-5-oxo-2,6,9,11-tetrazabicyclo[5.4.0]undeca-7,9,11-trien-10-yl)amino]-N-(3-dimethylamino-2,2-dimethyl-propyl)-3-methoxy-benzamide], the concentration for half-maximal inhibition (IC50) is less than 300 nM.
Under `CCN1CCC(NC(=O)c2cc(F)c(Nc3ncc4c(n3)N(C3CCCC3)CC(C)(C)C(=O)N4C)cc2F)CC1` [Example 355, 4-[(2-cyclopentyl-4,4,6-trimethyl-5-oxo-2,6,9,11-tetrazabicyclo[5.4.0]undeca-7,9,11-trien-10-yl)amino]-N-(1-ethyl-4-piperidyl)-2,5-difluoro-benzamide] stands less than 300 nM.
